Reference: article PMC6345968, “Structural basis for species-selective targeting of Hsp90 in a pathogenic fungus” (Nature Communications, 2019)
Like-named read-outs stand apart in the source and are kept apart here.

Key:
C. albicans Hsp90 NBD = molecular target: T1, C. albicans Hsp90 NBD (Candida albicans, UniProt P46598); assay: biochemical; type: binding; settings: 0.1 nM Cy3-GdA, C. albicans NBD-Hsp90 (10 nM); for FP signal (raw) / FP signal as fraction of no-compound (0 uM) control: Experiments 1-3
T1 construct: C. albicans Hsp90 (E7-K218); made in house; host or cells: E. coli Rosetta2
T1 sequence (P46598 7-218): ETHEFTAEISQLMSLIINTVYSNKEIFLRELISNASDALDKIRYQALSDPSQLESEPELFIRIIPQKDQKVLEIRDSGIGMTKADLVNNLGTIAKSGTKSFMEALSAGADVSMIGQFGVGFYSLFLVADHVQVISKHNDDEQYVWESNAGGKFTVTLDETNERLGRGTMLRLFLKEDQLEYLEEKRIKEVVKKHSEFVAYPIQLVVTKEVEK

[1] = molecular target: T2, Hsp90 in C. albicans (SC5314) lysate (Candida albicans, UniProt P46598); assay: biochemical; type: binding; settings: SC5314 lysate
T2 construct: endogenous in cells; host or cells: C. albicans SC5314 whole-cell lysate
T2 sequence (P46598 whole entry): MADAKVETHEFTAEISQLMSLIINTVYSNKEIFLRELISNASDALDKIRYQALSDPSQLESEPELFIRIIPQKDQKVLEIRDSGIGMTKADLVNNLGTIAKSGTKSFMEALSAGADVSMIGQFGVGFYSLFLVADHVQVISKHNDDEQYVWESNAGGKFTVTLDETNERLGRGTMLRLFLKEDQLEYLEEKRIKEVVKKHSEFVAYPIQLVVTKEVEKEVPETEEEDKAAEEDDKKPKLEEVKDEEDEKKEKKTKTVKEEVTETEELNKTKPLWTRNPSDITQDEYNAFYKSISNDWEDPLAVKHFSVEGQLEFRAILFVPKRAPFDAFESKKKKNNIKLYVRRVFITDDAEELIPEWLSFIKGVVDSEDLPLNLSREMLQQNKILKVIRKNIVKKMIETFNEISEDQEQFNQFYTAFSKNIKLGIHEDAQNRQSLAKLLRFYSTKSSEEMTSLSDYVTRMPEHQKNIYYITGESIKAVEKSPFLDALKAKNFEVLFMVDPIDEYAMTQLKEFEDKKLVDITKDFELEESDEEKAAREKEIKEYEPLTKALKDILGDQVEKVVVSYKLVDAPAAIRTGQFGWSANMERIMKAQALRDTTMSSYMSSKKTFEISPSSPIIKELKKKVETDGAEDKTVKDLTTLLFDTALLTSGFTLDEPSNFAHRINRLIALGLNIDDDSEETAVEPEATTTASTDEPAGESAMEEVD

Hsp90 in 3T3 lysate = assay: FP competition in whole-cell lysate; type: binding, mouse; settings: 3T3 lysate
Procedure: After vortexing, cell lysate was frozen at −80 °C for 2 h, followed by thawing on ice. The vortex-freeze-thaw step was repeated. […] Aliquots were thawed immediately prior to use.

human Hsp90 NBD = human Hsp90 NBD (Homo sapiens, UniProt P08238); settings: 0.1 nM Cy3-GdA, Human NBD-Hsp90 (10 nM); for FP signal (raw) / FP signal as fraction of no-compound (0 uM) control: Experiments 1-3
Sequence of human Hsp90 NBD (P08238 1-223): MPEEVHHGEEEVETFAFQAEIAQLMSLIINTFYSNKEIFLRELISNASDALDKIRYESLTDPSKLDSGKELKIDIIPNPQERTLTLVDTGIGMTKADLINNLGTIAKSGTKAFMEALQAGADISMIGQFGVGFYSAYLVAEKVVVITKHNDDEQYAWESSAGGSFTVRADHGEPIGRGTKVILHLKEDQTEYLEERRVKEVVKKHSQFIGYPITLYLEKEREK

human Grp94 NBD = human Grp94 NBD (Homo sapiens, UniProt P14625); settings: 0.1 nM Cy3-GdA; for FP signal (raw) / FP signal as fraction of no-compound (0 uM) control: Experiments 1-3
Sequence of human Grp94 NBD (P14625 63-337): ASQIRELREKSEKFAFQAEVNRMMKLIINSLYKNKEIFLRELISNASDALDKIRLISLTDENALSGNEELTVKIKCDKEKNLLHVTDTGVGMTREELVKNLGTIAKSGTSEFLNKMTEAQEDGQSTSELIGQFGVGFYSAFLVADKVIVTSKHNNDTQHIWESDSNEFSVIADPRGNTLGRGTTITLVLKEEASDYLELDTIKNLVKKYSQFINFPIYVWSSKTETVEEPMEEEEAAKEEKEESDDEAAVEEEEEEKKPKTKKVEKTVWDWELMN

Hsp90 in HEPG2 lysate = settings: HepG2 lysate
[2] = Experiments 1-3, one value per experiment

Compound: COc1ccc(CON=C2C=CC=CC3OC3CC(C)OC(=O)c3c(O)cc(O)cc3C2)cc1 (mixture of isomers) [CMLD075]
- EC50 (C. albicans Hsp90 NBD; [2]): 47.8 nM
- FP signal (raw) (C. albicans Hsp90 NBD; Cmpd 0.002 uM): 81
- FP signal as fraction of no-compound (0 uM) control (C. albicans Hsp90 NBD; Cmpd 0.002 uM): 0.8526
- FP signal (raw) (C. albicans Hsp90 NBD; Cmpd 0.004 uM): 80
- FP signal as fraction of no-compound (0 uM) control (C. albicans Hsp90 NBD; Cmpd 0.004 uM): 0.8421
- FP signal (raw) (C. albicans Hsp90 NBD; Cmpd 0.008 uM): 78
- FP signal as fraction of no-compound (0 uM) control (C. albicans Hsp90 NBD; Cmpd 0.008 uM): 0.8211
- FP signal (raw) (C. albicans Hsp90 NBD; Cmpd 0.016 uM): 72
- FP signal as fraction of no-compound (0 uM) control (C. albicans Hsp90 NBD; Cmpd 0.016 uM): 0.7579
- FP signal (raw) (C. albicans Hsp90 NBD; Cmpd 0.063 uM): 36
- FP signal as fraction of no-compound (0 uM) control (C. albicans Hsp90 NBD; Cmpd 0.063 uM): 0.3789
- FP signal (raw) (C. albicans Hsp90 NBD; Cmpd 0.25 uM): 16
- FP signal as fraction of no-compound (0 uM) control (C. albicans Hsp90 NBD; Cmpd 0.25 uM): 0.1684
- FP signal (raw) (C. albicans Hsp90 NBD; Cmpd 0.5 uM): 10
- FP signal as fraction of no-compound (0 uM) control (C. albicans Hsp90 NBD; Cmpd 0.5 uM): 0.1053
- FP signal (raw) (C. albicans Hsp90 NBD; Cmpd 1 uM): 7
- FP signal as fraction of no-compound (0 uM) control (C. albicans Hsp90 NBD; Cmpd 1 uM): 0.07368
- FP signal (raw) (C. albicans Hsp90 NBD; Cmpd 2 uM): 8
- FP signal as fraction of no-compound (0 uM) control (C. albicans Hsp90 NBD; Cmpd 2 uM): 0.08421
- FP signal (raw) ([1]; 0.002 uM): 169
- FP signal, fraction of control ([1]; 0.002 uM): 0.8989
- FP signal (raw) ([1]; 0.004 uM): 160
- FP signal, fraction of control ([1]; 0.004 uM): 0.8511
- FP signal (raw) ([1]; 0.008 uM): 155
- FP signal, fraction of control ([1]; 0.008 uM): 0.8245
- FP signal (raw) ([1]; 0.01 uM): 60
- FP signal, fraction of control ([1]; 0.01 uM): 0.3226
- FP signal (raw) ([1]; 0.016 uM): 142
- FP signal, fraction of control ([1]; 0.016 uM): 0.7553
- FP signal (raw) ([1]; 0.02 uM): 50
- FP signal, fraction of control ([1]; 0.02 uM): 0.2688
- FP signal (raw) ([1]; 0.063 uM): 103
- FP signal, fraction of control ([1]; 0.063 uM): 0.5479
- FP signal (raw) ([1]; 0.078 uM): 24
- FP signal, fraction of control ([1]; 0.078 uM): 0.129
- FP signal (raw) ([1]; 0.25 uM): 60
- FP signal, fraction of control ([1]; 0.25 uM): 0.3191
- FP signal (raw) ([1]; 0.313 uM): 14
- FP signal, fraction of control ([1]; 0.313 uM): 0.07527
- FP signal (raw) ([1]; 0.5 uM): 38
- FP signal, fraction of control ([1]; 0.5 uM): 0.2021
- FP signal (raw) ([1]; 0.625 uM): 7
- FP signal, fraction of control ([1]; 0.625 uM): 0.03763
- FP signal (raw) ([1]; 1 uM): 6
- FP signal, fraction of control ([1]; 1 uM): 0.03191
- FP signal (raw) ([1]; 2 uM): 0
- FP signal, fraction of control ([1]; 2 uM): 0
- FP signal (raw) ([1]; 2.5 uM): 3
- FP signal, fraction of control ([1]; 2.5 uM): 0.01613
- FP signal (raw) ([1]; 5 uM): 0
- FP signal, fraction of control ([1]; 5 uM): 0
- FP signal (raw) ([1]; 10 uM): -4
- FP signal, fraction of control ([1]; 10 uM): -0.02151
- EC50 ([1]; fit against log conc uM, read-out: EC50): 0.102 µM
- FP signal (raw) (Hsp90 in 3T3 lysate; 0.01 uM): 243
- FP signal, fraction of control (Hsp90 in 3T3 lysate; 0.01 uM): 0.9681
- FP signal (raw) (Hsp90 in 3T3 lysate; 0.02 uM): 243
- FP signal, fraction of control (Hsp90 in 3T3 lysate; 0.02 uM): 0.9681
- FP signal (raw) (Hsp90 in 3T3 lysate; 0.078 uM): 240
- FP signal, fraction of control (Hsp90 in 3T3 lysate; 0.078 uM): 0.9562
- FP signal (raw) (Hsp90 in 3T3 lysate; 0.313 uM): 223
- FP signal, fraction of control (Hsp90 in 3T3 lysate; 0.313 uM): 0.8884
- FP signal (raw) (Hsp90 in 3T3 lysate; 0.625 uM): 206
- FP signal, fraction of control (Hsp90 in 3T3 lysate; 0.625 uM): 0.8207
- FP signal (raw) (Hsp90 in 3T3 lysate; 2.5 uM): 144
- FP signal, fraction of control (Hsp90 in 3T3 lysate; 2.5 uM): 0.5737
- FP signal (raw) (Hsp90 in 3T3 lysate; 5 uM): 102
- FP signal, fraction of control (Hsp90 in 3T3 lysate; 5 uM): 0.4064
- FP signal (raw) (Hsp90 in 3T3 lysate; 10 uM): 52
- FP signal, fraction of control (Hsp90 in 3T3 lysate; 10 uM): 0.2072
- EC50 (Hsp90 in 3T3 lysate; fit against log conc uM): 3.42 µM
- EC50 (human Hsp90 NBD; [2]): 1250 nM
- FP signal (raw) (human Hsp90 NBD; Cmpd 0.002 uM): 100
- FP signal as fraction of no-compound (0 uM) control (human Hsp90 NBD; Cmpd 0.002 uM): 0.9615
- FP signal (raw) (human Hsp90 NBD; Cmpd 0.004 uM): 101
- FP signal as fraction of no-compound (0 uM) control (human Hsp90 NBD; Cmpd 0.004 uM): 0.9712
- FP signal (raw) (human Hsp90 NBD; Cmpd 0.008 uM): 101
- FP signal as fraction of no-compound (0 uM) control (human Hsp90 NBD; Cmpd 0.008 uM): 0.9712
- FP signal (raw) (human Hsp90 NBD; Cmpd 0.016 uM): 99
- FP signal as fraction of no-compound (0 uM) control (human Hsp90 NBD; Cmpd 0.016 uM): 0.9519
- FP signal (raw) (human Hsp90 NBD; Cmpd 0.063 uM): 96
- FP signal as fraction of no-compound (0 uM) control (human Hsp90 NBD; Cmpd 0.063 uM): 0.9231
- FP signal (raw) (human Hsp90 NBD; Cmpd 0.25 uM): 85
- FP signal as fraction of no-compound (0 uM) control (human Hsp90 NBD; Cmpd 0.25 uM): 0.8173
- FP signal (raw) (human Hsp90 NBD; Cmpd 0.5 uM): 85
- FP signal as fraction of no-compound (0 uM) control (human Hsp90 NBD; Cmpd 0.5 uM): 0.8173
- FP signal (raw) (human Hsp90 NBD; Cmpd 1 uM): 59
- FP signal as fraction of no-compound (0 uM) control (human Hsp90 NBD; Cmpd 1 uM): 0.5673
- FP signal (raw) (human Hsp90 NBD; Cmpd 2 uM): 28
- FP signal as fraction of no-compound (0 uM) control (human Hsp90 NBD; Cmpd 2 uM): 0.2692
- EC50 (human Grp94 NBD; [2]): 261 nM
- FP signal (raw) (human Grp94 NBD; Cmpd 0.002 uM): 93
- FP signal as fraction of no-compound (0 uM) control (human Grp94 NBD; Cmpd 0.002 uM): 0.9208
- FP signal (raw) (human Grp94 NBD; Cmpd 0.004 uM): 89
- FP signal as fraction of no-compound (0 uM) control (human Grp94 NBD; Cmpd 0.004 uM): 0.8812
- FP signal (raw) (human Grp94 NBD; Cmpd 0.008 uM): 88
- FP signal as fraction of no-compound (0 uM) control (human Grp94 NBD; Cmpd 0.008 uM): 0.8713
- FP signal (raw) (human Grp94 NBD; Cmpd 0.016 uM): 85
- FP signal as fraction of no-compound (0 uM) control (human Grp94 NBD; Cmpd 0.016 uM): 0.8416
- FP signal (raw) (human Grp94 NBD; Cmpd 0.063 uM): 73
- FP signal as fraction of no-compound (0 uM) control (human Grp94 NBD; Cmpd 0.063 uM): 0.7228
- FP signal (raw) (human Grp94 NBD; Cmpd 0.25 uM): 51
- FP signal as fraction of no-compound (0 uM) control (human Grp94 NBD; Cmpd 0.25 uM): 0.505
- FP signal (raw) (human Grp94 NBD; Cmpd 0.5 uM): 33
- FP signal as fraction of no-compound (0 uM) control (human Grp94 NBD; Cmpd 0.5 uM): 0.3267
- FP signal (raw) (human Grp94 NBD; Cmpd 1 uM): 15
- FP signal as fraction of no-compound (0 uM) control (human Grp94 NBD; Cmpd 1 uM): 0.1485
- FP signal (raw) (human Grp94 NBD; Cmpd 2 uM): 11
- FP signal as fraction of no-compound (0 uM) control (human Grp94 NBD; Cmpd 2 uM): 0.1089
- FP signal (raw) (Hsp90 in HEPG2 lysate; 0.01 uM): 200
- FP signal, fraction of control (Hsp90 in HEPG2 lysate; 0.01 uM): 0.9132
- FP signal (raw) (Hsp90 in HEPG2 lysate; 0.02 uM): 199
- FP signal, fraction of control (Hsp90 in HEPG2 lysate; 0.02 uM): 0.9087
- FP signal (raw) (Hsp90 in HEPG2 lysate; 0.078 uM): 186
- FP signal, fraction of control (Hsp90 in HEPG2 lysate; 0.078 uM): 0.8493
- FP signal (raw) (Hsp90 in HEPG2 lysate; 0.313 uM): 164
- FP signal, fraction of control (Hsp90 in HEPG2 lysate; 0.313 uM): 0.7489
- FP signal (raw) (Hsp90 in HEPG2 lysate; 0.625 uM): 146
- FP signal, fraction of control (Hsp90 in HEPG2 lysate; 0.625 uM): 0.6667
- FP signal (raw) (Hsp90 in HEPG2 lysate; 2.5 uM): 88
- FP signal, fraction of control (Hsp90 in HEPG2 lysate; 2.5 uM): 0.4018
- FP signal (raw) (Hsp90 in HEPG2 lysate; 5 uM): 53
- FP signal, fraction of control (Hsp90 in HEPG2 lysate; 5 uM): 0.242
- FP signal (raw) (Hsp90 in HEPG2 lysate; 10 uM): 32
- FP signal, fraction of control (Hsp90 in HEPG2 lysate; 10 uM): 0.1461
- EC50 (Hsp90 in HEPG2 lysate; fit against log conc uM): 1.8 µM
